From paper PMC5562778 (Archives of Toxicology, 2017)

Experiments:
Chinese liver S9 = assay: Sulfation of 1′-hydroxyestragole by Chinese liver S9 (PAPS, GSH trapping); type: in vitro ADME, human
Description: (§1) The formation of 1′-sulfooxyestragole was determined by incubating 0.2 mg/mL pooled mixed gender Chinese or Caucasian liver S9 in the presence of 0.2 mM PAPS as cofactor and 10 mM GSH as trapping agent for the reactive 1′-sulfooxyestragole in 0.1 M potassium phosphate (pH 8.0). The incubations were carried out for 2 h, and the reactions were terminated by adding 25 μL ice-cold acetonitrile. The blank samples were performed without cofactor. All incubations were performed in triplicate. In the supporting materials 2, detailed information can be found (Table S1 can be used to keep track of detailed information).
(§2) Before UPLC analysis, all samples were centrifuged for 5 min at 16, 000 g to precipitate microsomal or cytosolic proteins. Supernatant of each sample was analyzed on UPLC using a BEH C18 (1.7 μm, 2.1 × 50 mm) column with a guard column and a diode array detector (Acquity, Waters). Secondary metabolism of 1′-hydroxyestragole includes glucuronidation, oxidation, and sulfation. The gradient of analysis of the metabolites of 1′-hydroxyestragole can be found in supporting materials 2. Table S1 can be used to track more detailed information.
(§3) Since the UV spectrum of 3′-hydroxyanethole is similar to that of the GSH adduct of 1′-sulfooxyestragole, quantification of 1′-sulfooxyestragole could be achieved by comparing the peak area of the GSH adduct of 1′-sulfooxyestragole to the calibration curve of 3′-hydroxyanethole at a wavelength 260 nm as described for the quantification of 1′-sulfooxysafrole and 1′-sulfooxyelemicin (Martati et al. [2012]; Van den Berg et al. [2012]). The amount of 1′-sulfooxyestragole GSH adduct formed was corrected for the amount detected in the blank samples performed without the respective cofactor PAPS.
(§4) The apparent maximum velocity (V max) and the apparent Michaelis–Menten constant (K m) were determined by fitting the data to this equation using GraphPad Prism version 5.0 (GraphPad software, San Diego California USA).
(§5) The formation of 1'-sulfooxyestragole was determined by incubating 0.2 mg/ml pooled mixed gender Chinese or Caucasian liver S9 in the presence of 0.2 mM PAPS as cofactor and 10 mM GSH as trapping agent for the reactive 1'-sulfooxyestragole in 0.1 M potassium phosphate (pH 8.0). The final volume of the incubations was 100 μl with the substrate 1'-hydroxyestragole ranging from 15 to 2000 μM added from 100 times concentrated stock solutions in DMSO. As previously described by Martati et al. (Martati et al. 2011) and Al-Subeihi et al. (Al-Subeihi et al. 2011), the reactions were started by adding substrate after a pre-incubation at 37 °C for 1 min. The incubations were carried out for 2 hours and the reactions were terminated by adding 25 μl ice-cold acetonitrile. […] The blank samples were performed without cofactor. All incubations were performed in triplicate.
(§6) For detection of the GSH conjugate of 1'-sulfooxyestragole, the flow rate was 0.6 ml/min and the mobile phase was made with acetonitrile and ultrapure water with 0.1 % (v/v) TFA. A linear gradient started from 20 to 30 % acetonitrile in 4.5 min, after which the percentage of acetonitrile was increased to 100 % in 0.3 min and kept at 100 % for another 0.2 min and finally set back to the starting condition.

Chinese liver microsomes = assay: Microsomal conversion of estragole by Chinese liver microsomes (NADPH)
Description: (§7) The incubation mixtures contained (final concentrations) 3 mM NADPH and 1 mg/mL microsomal protein in 0.2 M Tris–HCl (pH 7.4). Incubations were performed for 10 min at substrate concentrations ranging from 25 to 1000 μM, after which the reaction was terminated by adding 25 μL ice-cold acetonitrile. Blank incubations were performed in the absence of the cofactor NADPH. All incubations were performed in triplicate. In the supporting materials 2, detailed information can be found (Table S1 can be used to keep track of detailed information).
(§8) Before UPLC analysis, all samples were centrifuged for 5 min at 16,000 g to precipitate microsomal proteins. Supernatant of each sample was analyzed on UPLC using a BEH C18 (1.7 μm, 2.1 × 50 mm) column with a guard column and a diode array detector (Acquity, Waters). […] Table S1 can be used to keep track of detailed information.
as §4
(§9) The incubation mixtures contained (final concentrations) 3 mM NADPH and 1 mg/ml microsomal protein in 0.2 M Tris-HCl (pH 7.4). […] Incubations were performed for 10 min at substrate concentrations ranging from 25 to 1000 μM, after which the reaction was terminated by adding 25 μl ice-cold acetonitrile. […] Blank incubations were performed in the absence of the cofactor NADPH. All incubations were performed in triplicate.
The flow rate was 0.6 ml/min and the gradient started with 100 % ultrapure water.

[1] = test system: Caucasian liver microsomes; assay: Microsomal conversion of estragole by Caucasian liver microsomes (NADPH); type: in vitro ADME, human
Description: as §7
as §8, with “information. […] 3′-Hydroxyanethole was quantified by comparison of the peak areas of the metabolite in the chromatograms obtained at a wavelength of 206 nm to the calibration curve of the synthesized reference compound (Agharahimi and LeBel [1995]; Drinkwater et al. [1976]; Iyer et al. [2003]; Luo et al. [1992]).” for “information.”
as §4, §9
The flow rate was 0.6 ml/min and the gradient started with 100 % ultrapure water. After 1 min, the amount of acetonitrile was increased to 10 % and kept at that level for 1 min, after which the percentage of acetonitrile was increased to 35 % in 2.5 min and then increased to 100 % over 0.5 minute and kept at 100 % acetonitrile for another 1 min, and finally back to the starting conditions.

Caucasian liver S9 = assay: Sulfation of 1′-hydroxyestragole by Caucasian liver S9 (PAPS, GSH trapping); type: in vitro ADME, human
Description: as §1, §2, §3, §4, §5, §6

SULT = SULT mediated conversion of 7-hydroxycoumarin to 7-hydroxycoumarin sulfate, liver S9; type: in vitro ADME, human
Description: (§10) The quality of the Chinese and Caucasian liver microsomes was checked by measuring the activity of CYP1A2 and CYP2A6 by the method of Yang et al. ([2012]). The quality of Chinese and Caucasian liver S9 samples was checked by measuring the SULT activity based on the method provided by Wang et al. ([2006]). The details of the methods for the microsomal and S9 in vitro incubations and UPLC analysis for assessing the metabolic capabilities of CYP and SULT enzymes can be found in the supporting materials 1.
(§11) Before UPLC analysis, all samples were centrifuged for 5 min at 16, 000g to precipitate microsomal or cytosolic proteins. Supernatant of each sample was analyzed on UPLC using a BEH C18 (1.7 μm 2.1×50 mm) column with a guard column and a diode array detector (Acquity, Waters).

CYP 2A6 [2] = target: T1, CYP 2A6 (Homo sapiens, UniProt P11509); parameters: method as in Yang et al. 2012; settings: ref Yang et al. 2012, cited from earlier work
T1 construct: tissue PrimeTox (Chinese pool); BD Gentest (Caucasian pool); host or cells: pooled mixed-gender human liver microsomes
T1 sequence (P11509 1-494): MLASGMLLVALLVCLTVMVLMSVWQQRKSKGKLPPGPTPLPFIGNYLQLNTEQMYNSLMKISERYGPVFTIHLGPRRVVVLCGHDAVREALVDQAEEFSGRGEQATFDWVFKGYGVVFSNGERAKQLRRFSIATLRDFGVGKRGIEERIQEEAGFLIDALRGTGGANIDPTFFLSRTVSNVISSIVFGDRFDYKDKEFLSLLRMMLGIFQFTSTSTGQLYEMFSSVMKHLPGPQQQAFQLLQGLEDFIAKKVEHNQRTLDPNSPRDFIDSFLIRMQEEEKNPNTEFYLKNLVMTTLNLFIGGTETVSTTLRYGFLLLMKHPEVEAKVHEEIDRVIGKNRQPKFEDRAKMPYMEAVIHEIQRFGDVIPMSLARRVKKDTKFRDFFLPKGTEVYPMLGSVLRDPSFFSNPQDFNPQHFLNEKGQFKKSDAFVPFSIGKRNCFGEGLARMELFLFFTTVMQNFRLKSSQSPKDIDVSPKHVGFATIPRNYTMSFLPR

CYP 2A6 [3] = target: T1, CYP 2A6; assay: CYP 2A6 mediated 7-hydroxylation of coumarin, liver microsomes; type: in vitro ADME
Description: as §10
The quality of the Chinese and Caucasian liver microsomes was checked by measuring the activity of CYP 1A2 and CYP 2A6 by the method of Yang et al. (Yang et al. 2012). CYP 1A2 and CYP 2A6 are predominant enzymes for formation of 1'-hydroxyestragole (Jeurissen et al. 2007). The activity of CYP 1A2 was measured with the substrate phenacetin, and the activity of CYP 2A6 was checked using the substrate coumarin. […] The samples were centrifuged for 5 min at 16, 000g to precipitate microsomal proteins and analyzed by UPLC.
as §11

[4] = formation of the metabolite from estragole, Chinese liver microsomes, average ± SEM
[5] = in vitro, liver microsomes, conversion of estragole
[6] = formation of the metabolite from estragole, Caucasian liver microsomes, average ± SEM
[7] = formation from 1′-hydroxyestragole (sulfation), Chinese liver S9
[8] = formation from 1′-hydroxyestragole (sulfation), Caucasian liver S9

C=CC(O)c1ccc(OC)cc1 (centres unmarked) [1′-Hydroxyestragole]
Scaled catalytic efficiency for sulfation, lower for Chinese than Caucasian samples (Chinese liver S9; scaled to liver, sulfation of 1′-hydroxyestragole to 1′-sulfooxyestragole): 4.5 fold
Catalytic efficiency (scaled V max / K m) (Chinese liver microsomes; formation from estragole, Chinese, scaled to liver): 15.0 µL/h/g liver
Scaled V max (Chinese liver microsomes; formation from estragole, Chinese, scaled with microsomal protein yield 35 mg/(g tissue)): 0.7 µmol/h/g liver
K m (Chinese liver microsomes; [4]): 49 ± 8 µM
V max (Chinese liver microsomes; [4]): 0.35 ± 0.01 nmol /min/mg microsomal or S9 protein
Catalytic efficiency for formation of the metabolite, lower in Chinese than in Caucasian samples (Chinese liver microsomes; [5]): 2.4 fold
V max for formation of the metabolite, lower in Chinese than in Caucasian samples (Chinese liver microsomes; [5]): 3.4 fold
V max, lower in Chinese than in Caucasian liver incubations (Chinese liver microsomes; scaled kinetic constants (Table 3), conversion of estragole): 3.5 fold
Catalytic efficiency (scaled V max / K m) ([1]; formation from estragole, Caucasian, scaled to liver): 40.3 µL/h/g liver
Scaled V max ([1]; formation from estragole, Caucasian, scaled with microsomal protein yield 35 mg/(g tissue)): 2.5 µmol/h/g liver
Catalytic efficiency (V max/K m × 1000) ([1]; formation of the metabolite from estragole, Caucasian liver microsomes): 19.3 µL/min/mg microsomal or S9 protein
K m [1, 6]: 62 ± 9 µM
V max [1, 6]: 1.19 ± 0.04 nmol /min/mg microsomal or S9 protein

C=CC(OS(=O)(=O)O)c1ccc(OC)cc1 (centres unmarked) [1′-Sulfooxyestragole]
Catalytic efficiency (V max/K m × 1000) (Chinese liver S9; [7]): 0.0021 µL/min/mg microsomal or S9 protein
K m (Chinese liver S9; [7]): 694 ± 321 µM
V max (Chinese liver S9; [7]): 0.0014 ± 0.0002 nmol /min/mg microsomal or S9 protein
Catalytic efficiency for formation of 1′-sulfooxyestragole, lower in Chinese than in Caucasian samples (Chinese liver S9; in vitro, sulfation of 1′-hydroxyestragole, liver S9): fivefold
Scaled V max (Chinese liver S9; sulfation of 1′-hydroxyestragole, Chinese, S9 protein yield 143 mg/(g tissue)): 0.01 µmol/h/g liver
Catalytic efficiency (scaled V max / K m) (Chinese liver S9; sulfation of 1′-hydroxyestragole, Chinese, scaled to liver): 0.02 µL/h/g liver
Catalytic efficiency (V max/K m × 1000) (Caucasian liver S9; [8]): 0.01 µL/min/mg microsomal or S9 protein
K m (Caucasian liver S9; [8]): 423 ± 159 µM
V max (Caucasian liver S9; [8]): 0.004 ± 0.0005 nmol /min/mg microsomal or S9 protein
Scaled V max (Caucasian liver S9; sulfation of 1′-hydroxyestragole, Caucasian, S9 protein yield 143 mg/(g tissue)): 0.03 µmol/h/g liver
Catalytic efficiency (scaled V max / K m) (Caucasian liver S9; sulfation of 1′-hydroxyestragole, Caucasian, scaled to liver): 0.08 µL/h/g liver

O=c1ccc2ccc(O)cc2o1 [7-hydroxycoumarin]
Vmax for SULT mediated conversion, both ethnic groups compared (SULT; Chinese and Caucasian liver S9): similar
Km at 10 min (SULT; human, pH 7.4, Chinese liver S9): 1.7 µM

O=c1ccc2ccccc2o1 [coumarin]
Catalytic efficiency for CYP 2A6 (CYP 2A6 [2]; Chinese liver microsomes, literature range): 150-1776 µl/min/(mg microsomal protein)
CYP 2A6 catalyzed activity, Chinese versus Caucasian liver microsomes (CYP 2A6 [2]): no difference
Catalytic efficiency of CYP 2A6 mediated conversion, lower in Chinese than Caucasian liver microsomes (CYP 2A6 [3]): 1.6 fold
